# Experimental data from PubChem BioAssay (NCI).
#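 Cells were grown in 96-well plates and exposed to each compound for 48 hours at five concentrations; endpoints were interpolated linearly between bracketing concentrations, or set to the highest concentration if not reached. The concentration for 50% growth inhibition is given as GI50. At the TGI there is no net growth.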
# Tests used:
# Test in all cases: DTP human tumour cell line panel, 48 h
# TK-10 renal = tested on: TK-10 renal
# SF-539 CNS = tested on: SF-539 CNS
# SF-268 CNS = tested on: SF-268 CNS
# K-562 leukemia = tested on: K-562 leukemia
# MOLT-4 leukemia = tested on: MOLT-4 leukemia
# SN12C renal = tested on: SN12C renal
# NCI/ADR-RES ovarian = tested on: NCI/ADR-RES ovarian
# CCRF-CEM leukemia = tested on: CCRF-CEM leukemia
# OVCAR-5 ovarian = tested on: OVCAR-5 ovarian
# SK-MEL-5 melanoma = tested on: SK-MEL-5 melanoma
# EKVX NSCLC = tested on: EKVX NSCLC
# SF-295 CNS = tested on: SF-295 CNS
# MCF7 breast = tested on: MCF7 breast
# HCT-15 colon = tested on: HCT-15 colon
# RPMI-8226 leukemia = tested on: RPMI-8226 leukemia
# SK-OV-3 ovarian = tested on: SK-OV-3 ovarian
# DU-145 prostate = tested on: DU-145 prostate
# UACC-62 melanoma = tested on: UACC-62 melanoma
# HL-60(TB) leukemia = tested on: HL-60(TB) leukemia
# UACC-257 melanoma = tested on: UACC-257 melanoma
# HCC-2998 colon = tested on: HCC-2998 colon
# UO-31 renal = tested on: UO-31 renal
# HOP-62 NSCLC = tested on: HOP-62 NSCLC
# NCI-H23 lung = tested on: NCI-H23 lung
# RXF 393 renal = tested on: RXF 393 renal
# A498 renal = tested on: A498 renal
# CAKI-1 renal = tested on: CAKI-1 renal
# ACHN renal = tested on: ACHN renal
# OVCAR-8 ovarian = tested on: OVCAR-8 ovarian
# MALME-3M melanoma = tested on: MALME-3M melanoma
# OVCAR-3 ovarian = tested on: OVCAR-3 ovarian
# SNB-75 CNS = tested on: SNB-75 CNS
# MDA-MB-435 = tested on: MDA-MB-435
# OVCAR-4 ovarian = tested on: OVCAR-4 ovarian
# NCI-H460 lung = tested on: NCI-H460 lung
compound,measurement,setting,value
COc1cc(-c2ccc(-c3ccc(C(=N)N)s3)s2)cc(OC)c1OC,GI50,TK-10 renal,2.7 µM
same,TGI,TK-10 renal,7.34 µM
same,GI50,SF-539 CNS,1.58 µM
same,TGI,SF-539 CNS,3.02 µM
same,GI50,SF-268 CNS,1.74 µM
same,TGI,SF-268 CNS,3.49 µM
same,GI50,K-562 leukemia,1.11 µM
same,TGI,K-562 leukemia,3.41 µM
same,GI50,MOLT-4 leukemia,2.4 µM
same,TGI,MOLT-4 leukemia,5 µM
same,GI50,SN12C renal,1.61 µM
same,TGI,SN12C renal,3.17 µM
same,GI50,NCI/ADR-RES ovarian,3.44 µM
same,TGI,NCI/ADR-RES ovarian,12.9 µM
same,GI50,CCRF-CEM leukemia,3.42 µM
same,TGI,CCRF-CEM leukemia,10.4 µM
same,GI50,OVCAR-5 ovarian,1.47 µM
same,TGI,OVCAR-5 ovarian,3.25 µM
same,GI50,SK-MEL-5 melanoma,1.52 µM
same,TGI,SK-MEL-5 melanoma,2.88 µM
same,GI50,EKVX NSCLC,1.92 µM
same,TGI,EKVX NSCLC,4.85 µM
same,GI50,SF-295 CNS,1.78 µM
same,TGI,SF-295 CNS,3.39 µM
same,GI50,MCF7 breast,1.66 µM
same,TGI,MCF7 breast,4.32 µM
same,GI50,HCT-15 colon,1.91 µM
same,TGI,HCT-15 colon,4.51 µM
same,GI50,RPMI-8226 leukemia,2.46 µM
same,TGI,RPMI-8226 leukemia,5.72 µM
same,GI50,SK-OV-3 ovarian,5.15 µM
same,TGI,SK-OV-3 ovarian,18.8 µM
same,GI50,DU-145 prostate,2.32 µM
same,TGI,DU-145 prostate,5.83 µM
same,GI50,UACC-62 melanoma,1.7 µM
same,TGI,UACC-62 melanoma,3.17 µM
same,GI50,HL-60(TB) leukemia,2.7 µM
same,TGI,HL-60(TB) leukemia,5.64 µM
same,GI50,UACC-257 melanoma,2.22 µM
same,TGI,UACC-257 melanoma,4.02 µM
same,GI50,HCC-2998 colon,1.76 µM
same,TGI,HCC-2998 colon,3.24 µM
same,GI50,UO-31 renal,1.74 µM
same,TGI,UO-31 renal,3.54 µM
same,GI50,HOP-62 NSCLC,1.97 µM
same,TGI,HOP-62 NSCLC,3.97 µM
same,GI50,NCI-H23 lung,2.61 µM
same,TGI,NCI-H23 lung,8.04 µM
same,GI50,RXF 393 renal,1.66 µM
same,TGI,RXF 393 renal,3.39 µM
same,GI50,A498 renal,2.25 µM
same,TGI,A498 renal,5.83 µM
same,GI50,CAKI-1 renal,1.7 µM
same,TGI,CAKI-1 renal,3.28 µM
same,GI50,ACHN renal,1.78 µM
same,TGI,ACHN renal,3.17 µM
same,GI50,OVCAR-8 ovarian,2.62 µM
same,TGI,OVCAR-8 ovarian,5.31 µM
same,GI50,MALME-3M melanoma,1.74 µM
same,TGI,MALME-3M melanoma,3.53 µM
same,GI50,OVCAR-3 ovarian,2.22 µM
same,TGI,OVCAR-3 ovarian,4.71 µM
same,GI50,SNB-75 CNS,1.5 µM
same,TGI,SNB-75 CNS,2.93 µM
same,GI50,MDA-MB-435,1.64 µM
same,TGI,MDA-MB-435,3.09 µM
same,GI50,OVCAR-4 ovarian,1.82 µM
same,TGI,OVCAR-4 ovarian,3.95 µM
same,GI50,NCI-H460 lung,1.99 µM
same,TGI,NCI-H460 lung,3.64 µM
